Key:
[1] = (§1) AUC in Sprague-Dawley rat at 10 mg/kg, po; format: ADME, organism-based, Plasma; parameters: dose 10 mg/kg, route oral; conditions: Sprague-Dawley, plasma
[2] = AUC in C57BL/6 mouse at 10 mg/kg, po; format: ADME, organism-based; parameters: dose 10 mg/kg, route oral; conditions: plasma
[3] = Cmax in C57BL/6 mouse at 10 mg/kg, po; format: ADME, organism-based; parameters: dose 10 mg/kg, route oral; conditions: in vivo
[4] = Tmax in C57BL/6 mouse at 10 mg/kg, po; format: ADME, organism-based; parameters: dose 10 mg/kg, route oral; conditions: in vivo
[5] = (§2) Oral bioavailability in Sprague-Dawley rat at 10 mg/kg; format: ADME, organism-based; conditions: Sprague-Dawley, in vivo
Rattus norvegicus [6] = experiment: as §1; format: ADME, organism-based, Plasma; parameters: dose 10 mg/kg, route oral; conditions: in vivo
Rattus norvegicus [7] = experiment: as §2; format: ADME, organism-based; conditions: in vivo
[8] = Oral bioavailability in C57BL/6 mouse at 10 mg/kg; format: ADME, organism-based; conditions: in vivo

Row | SMILES | AUC [1] [µM·h] | AUC [2] [µM·h] | Cmax [3] [µM] | Tmax [4] [h] | bioavailability [5] [%] | AUC (Rattus norvegicus [6]) [µM·h] | F (Rattus norvegicus [7]) [%] | bioavailability [8] [%]
1 | CC#C[C@H]1CN(S(=O)(=O)c2ccc(N)nc2)CCN1c1ccc(S(N)(=O)=O)cc1 | 0.26 | – | – | – | 5 | – | – | –
2 | CC#C[C@H]1CN(S(=O)(=O)c2ccc(N)nc2)CCN1c1ccc(S(=O)(=O)NC)cc1 | – | – | – | – | – | 0.03 | 1.5 | –
3 | CC#C[C@H]1CN(S(=O)(=O)c2ccc(N)nc2)CCN1c1ccc([S@](=N)(=O)C(F)(F)F)cc1 | 25.3 | 362 | 46.6 | 1 | 51 | – | – | 53
4 | CC#C[C@H]1CN(S(=O)(=O)c2ccc(N)nc2)CCN1c1ccc([C@@](C)(O)C(F)(F)F)cn1 | 28.4 | 37 | 9.71 | 0.25 | 47 | – | – | 47

The remaining lines, values ahead:

Row | AUC [1] [µM·h] | AUC [2] [µM·h] | Cmax [3] [µM] | Tmax [4] [h] | bioavailability [5] [%] | AUC (Rattus norvegicus [6]) [µM·h] | F (Rattus norvegicus [7]) [%] | bioavailability [8] [%] | SMILES
5 | 20 | 64.8 | 5.82 | 5 | – | – | – | – | CC#C[C@H]1CN(S(=O)(=O)c2ccc(N)nc2)CCN1c1ccc(C(O)(C(F)(F)F)C(F)(F)F)cc1
6 | 7.1 | – | – | – | 48 | – | – | – | CC#C[C@H]1CN(S(=O)(=O)c2ccc(N)nc2)CCN1c1ccc([C@](O)(CO)C(F)(F)F)cc1

Reference: ChEMBL document CHEMBL3232863, “Small molecule disruptors of the glucokinase-glucokinase regulatory protein interaction: 3. Structure-activity relationships within the aryl carbinol region of the N-arylsulfonamido-N'-arylpiperazine series” (J Med Chem, 2014)
